Assays:
[1] = tested on: Diglycosidase derived from P. multicolor; experiment: Reactivity toward various isoflavone glycosides (HPLC); assay type: biochemical, Penicillium multicolor; design: glucoside / aglycon: unit not given here; details: 55 °C, pH 4.0
In short: (§1)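 Aglycone liberation was measured by reversed-phase HPLC (260 nm, calibration-curve quantitation) after ethanol extraction at 0, 1, 3 and 6 h. Reactions ran at 55° C, pH 4.0 (20 mM acetate), with each glycoside (from 2 mM methanol stock) and 0.75 AU/mL enzyme solution.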

Crude diglycosidase = experiment: Examination of substrate concentration in the conversion into isoflavone aglycons by diglycosidase using soybean materials; assay type: biochemical, Penicillium multicolor IAM7153;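 on Decomposition efficiency: ratio of each glycoside/aglycon within its isoflavone family: percent of the isoflavone family total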
In short: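 Reaction at 55° C, shaken, pH 4.0 (20 mM acetate), using crude diglycosidase from a 1.88 AU/mL enzyme solution on soy flour, soymilk, defatted soybean or soy protein concentrate at 2, 5, 10, 20 or 30% (w/v). Isoflavone aglycons quantified by HPLC of ethanol extracts at 0, 1, 3, 6 h.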

[2] = tested on: β-Glucosidase derived from A. niger; experiment: Reactivity toward various isoflavone glycosides (HPLC); assay type: biochemical, Aspergillus niger; design: glucoside / aglycon: unit not given here; details: 55 °C, pH 4.0
In short: as §1

With `O=c1c(-c2ccc(O)cc2)coc2cc(O[C@@H]3O[C@H](CO)[C@@H](O)[C@H](O)[C@H]3O)ccc12` [daidzin] the aglycon ([1]; Reaction time 0 h) was 0.9, the glucoside ([1]; Reaction time 0 h) was 99.1 and the aglycon ([1]; Reaction time 1 h) was 70.1. For the same compound, the glucoside ([1]; Reaction time 1 h) was 29.9, the aglycon ([1]; Reaction time 3 h) was 81.8 and the glucoside ([1]; Reaction time 3 h) was 18.2. For the same compound, the aglycon ([1]; Reaction time 6 h) was 88.5, the glucoside ([1]; Reaction time 6 h) was 11.5 and the “Decomposition efficiency: ratio of each glycoside/aglycon within its isoflavone family” value (Crude diglycosidase; roasted soy flour, substrate concentration 2%, heat treatment of enzyme no, reaction time 0 h) was 30.2%. For the same compound, the “Decomposition efficiency: ratio of each glycoside/aglycon within its isoflavone family” value (Crude diglycosidase; roasted soy flour, substrate concentration 2%, heat treatment of enzyme no, reaction time 1 h) was “not detected”, the “Decomposition efficiency: ratio of each glycoside/aglycon within its isoflavone family” value (Crude diglycosidase; roasted soy flour, substrate concentration 2%, heat treatment of enzyme no, reaction time 3 h) was “not detected” and the “Decomposition efficiency: ratio of each glycoside/aglycon within its isoflavone family” value (Crude diglycosidase; roasted soy flour, substrate concentration 2%, heat treatment of enzyme no, reaction time 6 h) was “not detected”. For the same compound, the “Decomposition efficiency: ratio of each glycoside/aglycon within its isoflavone family” value (Crude diglycosidase; roasted soy flour, substrate concentration 2%, heat treatment of enzyme yes, reaction time 6 h) was 46.6%, the “Decomposition efficiency: ratio of each glycoside/aglycon within its isoflavone family” value (Crude diglycosidase; roasted soy flour, substrate concentration 5%, heat treatment of enzyme no, reaction time 0 h) was 46.1% and the “Decomposition efficiency: ratio of each glycoside/aglycon within its isoflavone family” value (Crude diglycosidase; roasted soy flour, substrate concentration 5%, heat treatment of enzyme no, reaction time 1 h) was “not detected”. The “Decomposition efficiency: ratio of each glycoside/aglycon within its isoflavone family” value (Crude diglycosidase; roasted soy flour, substrate concentration 5%, heat treatment of enzyme no, reaction time 3 h) was “not detected”, the “Decomposition efficiency: ratio of each glycoside/aglycon within its isoflavone family” value (Crude diglycosidase; roasted soy flour, substrate concentration 5%, heat treatment of enzyme no, reaction time 6 h) was “not detected” and the “Decomposition efficiency: ratio of each glycoside/aglycon within its isoflavone family” value (Crude diglycosidase; roasted soy flour, substrate concentration 5%, heat treatment of enzyme yes, reaction time 6 h) was 46.1%. The “Decomposition efficiency: ratio of each glycoside/aglycon within its isoflavone family” value (Crude diglycosidase; roasted soy flour, substrate concentration 10%, heat treatment of enzyme no, reaction time 0 h) was 60.1%, the “Decomposition efficiency: ratio of each glycoside/aglycon within its isoflavone family” value (Crude diglycosidase; roasted soy flour, substrate concentration 10%, heat treatment of enzyme no, reaction time 1 h) was “not detected” and the “Decomposition efficiency: ratio of each glycoside/aglycon within its isoflavone family” value (Crude diglycosidase; roasted soy flour, substrate concentration 10%, heat treatment of enzyme no, reaction time 3 h) was “not detected”. The “Decomposition efficiency: ratio of each glycoside/aglycon within its isoflavone family” value (Crude diglycosidase; roasted soy flour, substrate concentration 10%, heat treatment of enzyme no, reaction time 6 h) was “not detected”, the “Decomposition efficiency: ratio of each glycoside/aglycon within its isoflavone family” value (Crude diglycosidase; roasted soy flour, substrate concentration 10%, heat treatment of enzyme yes, reaction time 6 h) was 47.5% and the “Decomposition efficiency: ratio of each glycoside/aglycon within its isoflavone family” value (Crude diglycosidase; roasted soy flour, substrate concentration 20%, heat treatment of enzyme no, reaction time 0 h) was 50.3%. The “Decomposition efficiency: ratio of each glycoside/aglycon within its isoflavone family” value (Crude diglycosidase; roasted soy flour, substrate concentration 20%, heat treatment of enzyme no, reaction time 1 h) was “not detected”, the “Decomposition efficiency: ratio of each glycoside/aglycon within its isoflavone family” value (Crude diglycosidase; roasted soy flour, substrate concentration 20%, heat treatment of enzyme no, reaction time 3 h) was “not detected” and the “Decomposition efficiency: ratio of each glycoside/aglycon within its isoflavone family” value (Crude diglycosidase; roasted soy flour, substrate concentration 20%, heat treatment of enzyme no, reaction time 6 h) was “not detected”. For the same compound, the “Decomposition efficiency: ratio of each glycoside/aglycon within its isoflavone family” value (Crude diglycosidase; roasted soy flour, substrate concentration 20%, heat treatment of enzyme yes, reaction time 6 h) was 48.6%, the “Decomposition efficiency: ratio of each glycoside/aglycon within its isoflavone family” value (Crude diglycosidase; roasted soy flour, substrate concentration 30%, heat treatment of enzyme no, reaction time 0 h) was 47.7% and the “Decomposition efficiency: ratio of each glycoside/aglycon within its isoflavone family” value (Crude diglycosidase; roasted soy flour, substrate concentration 30%, heat treatment of enzyme no, reaction time 1 h) was “not detected”. The “Decomposition efficiency: ratio of each glycoside/aglycon within its isoflavone family” value (Crude diglycosidase; roasted soy flour, substrate concentration 30%, heat treatment of enzyme no, reaction time 3 h) was “not detected”, the “Decomposition efficiency: ratio of each glycoside/aglycon within its isoflavone family” value (Crude diglycosidase; roasted soy flour, substrate concentration 30%, heat treatment of enzyme no, reaction time 6 h) was “not detected” and the “Decomposition efficiency: ratio of each glycoside/aglycon within its isoflavone family” value (Crude diglycosidase; roasted soy flour, substrate concentration 30%, heat treatment of enzyme yes, reaction time 6 h) was 49.0%. For the same compound, the “Decomposition efficiency: ratio of each glycoside/aglycon within its isoflavone family” value (Crude diglycosidase; soymilk, substrate concentration 2%, heat treatment of enzyme no, reaction time 0 h) was 53.5%, the “Decomposition efficiency: ratio of each glycoside/aglycon within its isoflavone family” value (Crude diglycosidase; soymilk, substrate concentration 2%, heat treatment of enzyme no, reaction time 1 h) was “not detected” and the “Decomposition efficiency: ratio of each glycoside/aglycon within its isoflavone family” value (Crude diglycosidase; soymilk, substrate concentration 2%, heat treatment of enzyme no, reaction time 3 h) was “not detected”. The “Decomposition efficiency: ratio of each glycoside/aglycon within its isoflavone family” value (Crude diglycosidase; soymilk, substrate concentration 2%, heat treatment of enzyme no, reaction time 6 h) was “not detected”, the “Decomposition efficiency: ratio of each glycoside/aglycon within its isoflavone family” value (Crude diglycosidase; soymilk, substrate concentration 2%, heat treatment of enzyme yes, reaction time 6 h) was 39.8% and the “Decomposition efficiency: ratio of each glycoside/aglycon within its isoflavone family” value (Crude diglycosidase; soymilk, substrate concentration 5%, heat treatment of enzyme no, reaction time 0 h) was 34.2%. The “Decomposition efficiency: ratio of each glycoside/aglycon within its isoflavone family” value (Crude diglycosidase; soymilk, substrate concentration 5%, heat treatment of enzyme no, reaction time 1 h) was “not detected”, the “Decomposition efficiency: ratio of each glycoside/aglycon within its isoflavone family” value (Crude diglycosidase; soymilk, substrate concentration 5%, heat treatment of enzyme no, reaction time 3 h) was “not detected” and the “Decomposition efficiency: ratio of each glycoside/aglycon within its isoflavone family” value (Crude diglycosidase; soymilk, substrate concentration 5%, heat treatment of enzyme no, reaction time 6 h) was “not detected”. For the same compound, the “Decomposition efficiency: ratio of each glycoside/aglycon within its isoflavone family” value (Crude diglycosidase; soymilk, substrate concentration 5%, heat treatment of enzyme yes, reaction time 6 h) was 40.5%, the “Decomposition efficiency: ratio of each glycoside/aglycon within its isoflavone family” value (Crude diglycosidase; soymilk, substrate concentration 10%, heat treatment of enzyme no, reaction time 0 h) was 34.6% and the “Decomposition efficiency: ratio of each glycoside/aglycon within its isoflavone family” value (Crude diglycosidase; soymilk, substrate concentration 10%, heat treatment of enzyme no, reaction time 1 h) was “not detected”. For the same compound, the “Decomposition efficiency: ratio of each glycoside/aglycon within its isoflavone family” value (Crude diglycosidase; soymilk, substrate concentration 10%, heat treatment of enzyme no, reaction time 3 h) was “not detected”, the “Decomposition efficiency: ratio of each glycoside/aglycon within its isoflavone family” value (Crude diglycosidase; soymilk, substrate concentration 10%, heat treatment of enzyme no, reaction time 6 h) was “not detected” and the “Decomposition efficiency: ratio of each glycoside/aglycon within its isoflavone family” value (Crude diglycosidase; soymilk, substrate concentration 10%, heat treatment of enzyme yes, reaction time 6 h) was 39.4%. The “Decomposition efficiency: ratio of each glycoside/aglycon within its isoflavone family” value (Crude diglycosidase; soymilk, substrate concentration 20%, heat treatment of enzyme no, reaction time 0 h) was 34.1%, the “Decomposition efficiency: ratio of each glycoside/aglycon within its isoflavone family” value (Crude diglycosidase; soymilk, substrate concentration 20%, heat treatment of enzyme no, reaction time 1 h) was “not detected” and the “Decomposition efficiency: ratio of each glycoside/aglycon within its isoflavone family” value (Crude diglycosidase; soymilk, substrate concentration 20%, heat treatment of enzyme no, reaction time 3 h) was “not detected”. The “Decomposition efficiency: ratio of each glycoside/aglycon within its isoflavone family” value (Crude diglycosidase; soymilk, substrate concentration 20%, heat treatment of enzyme no, reaction time 6 h) was “not detected”, the “Decomposition efficiency: ratio of each glycoside/aglycon within its isoflavone family” value (Crude diglycosidase; soymilk, substrate concentration 20%, heat treatment of enzyme yes, reaction time 6 h) was 39.8% and the “Decomposition efficiency: ratio of each glycoside/aglycon within its isoflavone family” value (Crude diglycosidase; soymilk, substrate concentration 30%, heat treatment of enzyme no, reaction time 0 h) was 34.9%. For the same compound, the “Decomposition efficiency: ratio of each glycoside/aglycon within its isoflavone family” value (Crude diglycosidase; soymilk, substrate concentration 30%, heat treatment of enzyme no, reaction time 1 h) was “not detected”, the “Decomposition efficiency: ratio of each glycoside/aglycon within its isoflavone family” value (Crude diglycosidase; soymilk, substrate concentration 30%, heat treatment of enzyme no, reaction time 3 h) was “not detected” and the “Decomposition efficiency: ratio of each glycoside/aglycon within its isoflavone family” value (Crude diglycosidase; soymilk, substrate concentration 30%, heat treatment of enzyme no, reaction time 6 h) was “not detected”. For the same compound, the “Decomposition efficiency: ratio of each glycoside/aglycon within its isoflavone family” value (Crude diglycosidase; soymilk, substrate concentration 30%, heat treatment of enzyme yes, reaction time 6 h) was 40.0%, the “Decomposition efficiency of daidzin family in defatted soybean” value (Crude diglycosidase; substrate concentration 2%, heat treatment of enzyme no, reaction time 0 h) was 42.3 and the “Decomposition efficiency of daidzin family in defatted soybean” value (Crude diglycosidase; substrate concentration 2%, heat treatment of enzyme no, reaction time 1 h) was “not detected”. For the same compound, the “Decomposition efficiency of daidzin family in defatted soybean” value (Crude diglycosidase; substrate concentration 2%, heat treatment of enzyme no, reaction time 3 h) was “not detected”, the “Decomposition efficiency of daidzin family in defatted soybean” value (Crude diglycosidase; substrate concentration 2%, heat treatment of enzyme no, reaction time 6 h) was “not detected” and the “Decomposition efficiency of daidzin family in defatted soybean” value (Crude diglycosidase; substrate concentration 2%, heat treatment of enzyme yes, reaction time 6 h) was 43.7. For the same compound, the “Decomposition efficiency of daidzin family in defatted soybean” value (Crude diglycosidase; substrate concentration 5%, heat treatment of enzyme no, reaction time 0 h) was 44.0, the “Decomposition efficiency of daidzin family in defatted soybean” value (Crude diglycosidase; substrate concentration 5%, heat treatment of enzyme no, reaction time 1 h) was “not detected” and the “Decomposition efficiency of daidzin family in defatted soybean” value (Crude diglycosidase; substrate concentration 5%, heat treatment of enzyme no, reaction time 3 h) was “not detected”. For the same compound, the “Decomposition efficiency of daidzin family in defatted soybean” value (Crude diglycosidase; substrate concentration 5%, heat treatment of enzyme no, reaction time 6 h) was “not detected”, the “Decomposition efficiency of daidzin family in defatted soybean” value (Crude diglycosidase; substrate concentration 5%, heat treatment of enzyme yes, reaction time 6 h) was 45.8 and the “Decomposition efficiency of daidzin family in defatted soybean” value (Crude diglycosidase; substrate concentration 10%, heat treatment of enzyme no, reaction time 0 h) was 45.6. For the same compound, the “Decomposition efficiency of daidzin family in defatted soybean” value (Crude diglycosidase; substrate concentration 10%, heat treatment of enzyme no, reaction time 1 h) was “not detected”, the “Decomposition efficiency of daidzin family in defatted soybean” value (Crude diglycosidase; substrate concentration 10%, heat treatment of enzyme no, reaction time 3 h) was “not detected” and the “Decomposition efficiency of daidzin family in defatted soybean” value (Crude diglycosidase; substrate concentration 10%, heat treatment of enzyme no, reaction time 6 h) was “not detected”. The “Decomposition efficiency of daidzin family in defatted soybean” value (Crude diglycosidase; substrate concentration 10%, heat treatment of enzyme yes, reaction time 6 h) was 47.5, the “reactivity of β-glucosidase derived from Aspergillus niger (in words)” value [2] was “act well” and the aglycon ([2]; Reaction time 0 h) was 0. The glucoside ([2]; Reaction time 0 h) was 100, the aglycon ([2]; Reaction time 1 h) was 100 and the glucoside ([2]; Reaction time 1 h) was 0. The aglycon ([2]; Reaction time 3 h) was 100, the glucoside ([2]; Reaction time 3 h) was 0 and the aglycon ([2]; Reaction time 6 h) was 100. It also gave a glucoside ([2]; Reaction time 6 h) of 0.

— patent publication US7118895B2, “Process for producing aglycon by using diglycosidase and flavor-improved food containing the aglycon and converting agent to be used in the process” (Amano Enzyme Inc., priority 2000, dated 2006)
